These are literature values, as cited in US20130338095A1, “Chemosensory Receptor Ligand-Based Therapies” (ELCELYX THERAPEUTICS, INC., priority 2010, published 2013).

For this data set, the target named is T1, sweet receptor (Homo sapiens, UniProt Q7RTX0+Q8TE23).
T1 sequence (Q8TE23 20-839): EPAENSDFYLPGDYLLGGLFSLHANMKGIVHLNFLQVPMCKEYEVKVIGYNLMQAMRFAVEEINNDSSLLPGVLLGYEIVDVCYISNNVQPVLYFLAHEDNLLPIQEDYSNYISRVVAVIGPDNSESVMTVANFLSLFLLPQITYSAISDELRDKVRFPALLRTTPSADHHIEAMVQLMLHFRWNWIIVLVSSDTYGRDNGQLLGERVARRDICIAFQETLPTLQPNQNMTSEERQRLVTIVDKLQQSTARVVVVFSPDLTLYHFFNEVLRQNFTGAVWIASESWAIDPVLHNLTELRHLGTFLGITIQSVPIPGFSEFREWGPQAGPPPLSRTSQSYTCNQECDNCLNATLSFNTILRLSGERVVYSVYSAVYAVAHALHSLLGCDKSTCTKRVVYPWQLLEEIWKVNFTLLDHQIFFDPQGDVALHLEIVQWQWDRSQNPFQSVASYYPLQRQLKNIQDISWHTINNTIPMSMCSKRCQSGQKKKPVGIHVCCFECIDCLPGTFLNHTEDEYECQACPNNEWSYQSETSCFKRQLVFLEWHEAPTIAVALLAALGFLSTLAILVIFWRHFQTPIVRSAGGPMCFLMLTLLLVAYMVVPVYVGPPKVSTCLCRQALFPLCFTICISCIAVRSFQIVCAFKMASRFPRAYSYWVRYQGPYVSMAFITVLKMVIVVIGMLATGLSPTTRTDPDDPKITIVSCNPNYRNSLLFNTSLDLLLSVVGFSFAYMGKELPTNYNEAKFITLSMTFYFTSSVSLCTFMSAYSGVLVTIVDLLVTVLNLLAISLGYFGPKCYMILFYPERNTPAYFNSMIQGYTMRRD
T1 sequence (Q7RTX0 21-852): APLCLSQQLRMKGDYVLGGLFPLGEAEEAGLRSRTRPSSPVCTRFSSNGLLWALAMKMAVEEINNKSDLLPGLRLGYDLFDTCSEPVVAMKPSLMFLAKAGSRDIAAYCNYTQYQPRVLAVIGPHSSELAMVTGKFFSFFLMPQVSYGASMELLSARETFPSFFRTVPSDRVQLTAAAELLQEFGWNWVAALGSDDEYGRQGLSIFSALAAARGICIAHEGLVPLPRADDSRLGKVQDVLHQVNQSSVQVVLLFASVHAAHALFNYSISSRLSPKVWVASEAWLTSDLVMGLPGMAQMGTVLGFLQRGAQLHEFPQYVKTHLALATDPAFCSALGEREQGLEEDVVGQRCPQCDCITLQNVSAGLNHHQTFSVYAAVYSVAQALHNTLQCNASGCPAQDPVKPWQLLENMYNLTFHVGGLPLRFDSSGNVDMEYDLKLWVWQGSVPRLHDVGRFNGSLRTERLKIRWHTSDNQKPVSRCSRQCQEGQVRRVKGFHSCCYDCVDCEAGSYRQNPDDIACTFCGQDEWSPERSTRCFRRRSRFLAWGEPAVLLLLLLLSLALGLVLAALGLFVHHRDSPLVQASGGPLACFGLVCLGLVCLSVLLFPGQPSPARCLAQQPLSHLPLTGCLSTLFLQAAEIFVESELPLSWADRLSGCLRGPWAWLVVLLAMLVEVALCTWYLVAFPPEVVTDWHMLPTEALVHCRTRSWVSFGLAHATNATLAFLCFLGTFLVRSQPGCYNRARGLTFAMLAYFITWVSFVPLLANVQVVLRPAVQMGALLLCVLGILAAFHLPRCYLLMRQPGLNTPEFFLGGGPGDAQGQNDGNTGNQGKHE
Conditions: relative sweetness on a weight comparison basis to sucrose (=1.0).
Consider `COc1c(O)cc2c(c1O)C(=O)[C@H](OC(C)=O)[C@@H](c1ccc(O)c(O)c1)O2` [(2R,3R)-2,3-Dihydro-5,7,3′,4′-tetrahydroxy-6-methoxy-3-O-acetylflavonol], for which the Sweetness/potency was 25.

For the molecule `COc1c(O)cc2c(c1O)C(=O)[C@H](O)[C@@H](c1ccc(O)c(O)c1)O2` [(2R,3R)-2,3-Dihydro-5,7,3′,4′-tetrahydroxy-6-methoxyflavonol], the Sweetness/potency is given as 15.

On to `COc1c(O)cc2c(c1O)C(=O)[C@H](OC(C)=O)[C@@H](c1ccc(O)cc1)O2` [(2R,3R)-2,3-Dihydro-5,7,4′-trihydroxy-6-methoxy-3-O-acetylflavonol], for which the Sweetness/potency is reported as 20.

On to `CC(=O)O[C@H]1C(=O)c2c(O)cc(O)cc2O[C@@H]1c1ccc(O)c(O)c1` [(2R,3R)-Dihydroquercetin 3-O-acetate], for which the Sweetness/potency was 80.

With `CC(C)=CCC[C@](C)(O)[C@@H]1CCC(C)=CC1=O` [(+)-Hernandulcin], the Sweetness/potency is listed as 1,500.

Regarding `CC1=CC[C@@H]([C@@H](C)[C@H]2CC[C@@]3(C)[C@@H]4CC[C@H]5[C@](C)(C(=O)O)[C@@H](O[C@@H]6O[C@H](CO)[C@@H](O)[C@H](O)[C@H]6O)CC[C@@]56C[C@@]46CC[C@]23C)OC1=O` [Abrusoside A], the Sweetness/potency is 30.

`COC(=O)[C@H]1O[C@@H](O[C@H]2[C@H](O[C@H]3CC[C@]45C[C@]46CC[C@]4(C)[C@@H]([C@H](C)[C@@H]7CC=C(C)C(=O)O7)CC[C@@]4(C)[C@@H]6CC[C@H]5[C@]3(C)C(=O)O)O[C@H](CO)[C@@H](O)[C@@H]2O)[C@H](O)[C@@H](O)[C@@H]1O` [Abrusoside B]: the Sweetness/potency is 100.

As for `CC1=CC[C@@H]([C@@H](C)[C@H]2CC[C@@]3(C)[C@@H]4CC[C@H]5[C@](C)(C(=O)O)[C@@H](O[C@@H]6O[C@H](CO)[C@@H](O)[C@H](O)[C@H]6O[C@@H]6O[C@H](CO)[C@@H](O)[C@H](O)[C@H]6O)CC[C@@]56C[C@@]46CC[C@]23C)OC1=O` [Abrusoside C], the Sweetness/potency is 50.

Regarding `CC1=CC[C@@H]([C@@H](C)[C@H]2CC[C@@]3(C)[C@@H]4CC[C@H]5[C@](C)(C(=O)O)[C@@H](O[C@@H]6O[C@H](CO)[C@@H](O)[C@H](O)[C@H]6O[C@@H]6O[C@H](C(=O)O)[C@@H](O)[C@H](O)[C@H]6O)CC[C@@]56C[C@@]46CC[C@]23C)OC1=O` [Abrusoside D], the Sweetness/potency is recorded as 75.

As to `CC1(C)C[C@H]2C3=CC[C@@H]4[C@@]5(C)CC[C@H](O[C@@H]6O[C@H](CO[C@@H]7OC[C@H](O)[C@H](O)[C@H]7O[C@@H]7OC[C@@H](O)[C@H](O)[C@H]7O)[C@@H](O)[C@H](O)[C@H]6O)C(C)(C)[C@@H]5CC[C@@]4(C)[C@]3(C)C[C@@H](O)[C@@]23C[C@@H]1OC3=O` [Albiziasaponin A], the Sweetness/potency is given as 5.

In the case of `CC1(C(=O)O)CCC2(C)CCC3(C)C(=CC(=O)C4C5(C)CCC(OC6OC(C(=O)O)C(O)C(O)C6OC6OCC(O)(CO)C6O)C(C)(C)C5CCC43C)C2C1` (stereo not shown) [Apioglycyrrhizin], the Sweetness/potency is given as 300.

`CC1(C)[C@@H](O[C@H]2O[C@H](C(=O)O)[C@@H](O)[C@H](O)[C@H]2O[C@@H]2OC[C@H](O)[C@H](O)[C@H]2O)CC[C@]2(C)[C@H]3C(=O)C=C4[C@@H]5C[C@@](C)(C(=O)O)CC[C@]5(C)CC[C@@]4(C)[C@]3(C)CC[C@@H]12` [Araboglycyrrhizin]: the Sweetness/potency is on record as 150.

Turning to `C/C(=C\CC[C@@H](C)[C@H]1CC[C@@]2(C)[C@@H]3CC=C4[C@@H](CC[C@H](O[C@@H]5O[C@H](CO)[C@@H](O)[C@H](O)[C@H]5O)C4(C)C)[C@]3(C)[C@H](O)C[C@]12C)CO[C@@H]1O[C@H](CO[C@@H]2O[C@H](CO)[C@@H](O)[C@H](O)[C@H]2O)[C@@H](O)[C@H](O)[C@H]1O` [Carnosifloside VI], the Sweetness/potency is given as 77.

`COc1ccc(C2Oc3cc(O)cc(O)c3C(=O)C2OC(C)=O)cc1O` (stereo not shown) [Dihydroquercetin 3-O-acetate 4′-methyl ether]: the Sweetness/potency was 400.

As for `C=C1C[C@@]23CC[C@H]4[C@@](C)(CCC[C@@]4(C)C(=O)O[C@@H]4O[C@H](CO)[C@@H](O)[C@H](O)[C@H]4O)[C@@H]2CC[C@]1(O[C@@H]1O[C@H](CO)[C@@H](O)[C@H](O)[C@H]1O[C@@H]1O[C@@H](C)[C@H](O)[C@@H](O)[C@H]1O)C3` [Dulcoside A], the Sweetness/potency is given as 30.

Regarding `C/C(=C\CO)CCC1=C(C=O)CC(OC2OCC(O)C(O)C2O)C2C(C)(CO)CCCC12C` (stereo not shown) [Gaudichaudioside A], the Sweetness/potency is 55.

In the case of `Oc1cc2c(cc1O)[C@@H]1c3ccc(O)c(O)c3OC[C@]1(O)C2` [Hematoxylin], the Sweetness/potency was 120.

Regarding `C/C(=C\CC/C(C)=C/CO[C@@H]1O[C@H](CO)[C@@H](O)[C@H](O[C@@H]2O[C@@H](C)[C@H](O)[C@@H](O)[C@H]2O)[C@H]1O[C@@H]1O[C@@H](C)[C@H](O)[C@@H](O)[C@H]1O)CC/C=C(\C)CO[C@@H]1O[C@H](CO)[C@@H](O)[C@H](O[C@@H]2O[C@@H](C)[C@H](O)[C@@H](O)[C@H]2O)[C@H]1O[C@@H]1O[C@@H](C)[C@H](O)[C@@H](O)[C@H]1O` [Mukurozioside IIb], the Sweetness/potency entry is given as “ca. 1”.

In the case of `C[C@@H]1O[C@@H](O[C@H]2[C@H](Oc3cc(O)c(C(=O)CCc4ccc(O)cc4)c(O)c3)O[C@H](CO)[C@@H](O)[C@@H]2O)[C@H](O)[C@H](O)[C@H]1O` [Naringin dihydrochalcone], the Sweetness/potency is given as 300.

Take `COc1ccc(CCC(=O)c2c(O)cc(O[C@@H]3O[C@H](CO)[C@@H](O)[C@H](O)[C@H]3O[C@@H]3O[C@@H](C)[C@H](O)[C@@H](O)[C@H]3O)cc2O)cc1O` [Neohesperidin dihydrochalcone]: the Sweetness/potency is on record as 1,000.

On to `C[C@@H]1O[C@@H](O[C@H]2O[C@@H]([C@@H](C)C3CC[C@@H]4[C@H]5CC(=O)[C@@H]6C[C@H](O[C@@H]7O[C@H](CO)[C@@H](O)[C@H](O)[C@H]7O[C@@H]7O[C@@H](C)[C@H](O)[C@@H](O)[C@H]7O)CC[C@]6(C)[C@@H]5CC[C@]34C)CC[C@@H]2C)[C@H](O)[C@H](O)[C@H]1O` (stereo partly shown) [Osladin], for which the Sweetness/potency is 500.

For `CC1(C(=O)O)C=C2C3CCC4C5(CO)CCC(OC6OC(C(=O)O)C(O)C(O)C6OC6OC(C(=O)O)C(O)C(O)C6O)C(C)(C)C5CCC4(C)C3(C)CCC2(C)CC1` (stereo not shown) [Periandrin III], the Sweetness/potency is given as 92.

`CC1(C)[C@@H](O[C@@H]2O[C@H](C(=O)O)[C@@H](O)[C@H](O)[C@H]2O[C@@H]2O[C@H](C(=O)O)[C@@H](O)[C@H](O)[C@H]2O)CC[C@]2(C=O)[C@H]3CC[C@@H]4C5=C[C@@](C)(C(=O)O)CC[C@]5(C)CC[C@@]4(C)[C@]3(C)CC[C@@H]12` [Periandrin I]: the Sweetness/potency is given as 90.

Consider `CC1(C(=O)O)C=C2C3CCC4C5(C=O)CCC(OC6OC(C(=O)O)C(O)C(O)C6OC6OCC(O)C(O)C6O)C(C)(C)C5CCC4(C)C3(C)CCC2(C)CC1` (stereo not shown) [Periandrin V], for which the Sweetness/potency was 220.

Consider `COc1ccc([C@H]2Cc3cccc(O)c3C(=O)O2)cc1O` [Phyllodulcin], for which the Sweetness/potency is given as 400.

In the case of `C=C(C)C1CCC2(C)C(CC(OC3OCC(O)C(O)C3O)C3C(C(C)(O)C/C=C/C(C)(C)O)CCC32C)C1(C)CCC(=O)O` (stereo not shown) [Pterocaryoside B], the Sweetness/potency is given as 100.

As for `Oc1ccc([C@H]2Oc3c(c(O)cc4c3[C@H]3c5c(O)cc(O)cc5O[C@@](c5ccc(O)cc5)(O4)[C@@H]3O)[C@H](c3c(O)cc(O)c4c3O[C@H](c3ccc(O)cc3)[C@@H](O)C4)[C@H]2O)cc1` [Selligueain A], the Sweetness/potency is listed as 35.

Take `C=C1C[C@@]23CC[C@H]4[C@@](C)(CCC[C@@]4(C)C(=O)O)[C@@H]2CC[C@]1(O[C@@H]1O[C@H](CO)[C@@H](O)[C@H](O)[C@H]1O[C@@H]1O[C@H](CO)[C@@H](O)[C@H](O)[C@H]1O)C3` [Steviolbioside]: the Sweetness/potency is on record as 90.
